Test results as given in publication PMC2869451 (Journal of medicinal chemistry, 2009).

Molecular target: S-adenosylmethionine synthetase (MAT, cMAT) (Escherichia coli, UniProt P0A817)
Assay: […]-methionine incorporation into AdoMet with purified enzyme
Type: biochemical

S-adenosylmethionine synthetase (MAT, cMAT), sequence (P0A817 2-384): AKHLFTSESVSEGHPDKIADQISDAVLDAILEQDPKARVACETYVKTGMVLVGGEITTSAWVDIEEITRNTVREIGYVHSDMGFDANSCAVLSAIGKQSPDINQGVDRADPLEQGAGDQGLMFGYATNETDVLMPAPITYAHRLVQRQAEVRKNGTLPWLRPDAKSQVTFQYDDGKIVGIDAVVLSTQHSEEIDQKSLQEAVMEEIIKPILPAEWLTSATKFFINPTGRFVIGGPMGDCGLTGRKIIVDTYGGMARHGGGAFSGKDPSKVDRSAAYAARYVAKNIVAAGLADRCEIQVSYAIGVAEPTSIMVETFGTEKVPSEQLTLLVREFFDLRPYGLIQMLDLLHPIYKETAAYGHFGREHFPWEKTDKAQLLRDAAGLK

In the case of CCOc1ccccc1NC(=O)NCC(=O)NNC(=O)Nc1cc([N+](=O)[O-])ccc1C [compound 1, 1-(3-(2-ethoxyphenyl)ureidoacetyl)-4-(2-methyl-5-nitrophenyl)semicarbazide], the Ki is reported as 1.9 ± 0.8 nM.
